According to US20040235799A1, “Use of a compound with a negatively charged domain of radicals for the treatment of restenosis” (priority 2001, published 2004):

Tested on: Wistar rats
Assay: Neointima formation after balloon catheter vessel injury of the carotid artery in rats
Assay type: in vivo
Protocol: The effects on neointima formation was assessed after inducing vessel injury in rats with a balloon catheter. Neointima formation is an important part in the process of restenosis. Adult mate Wistar rats (250-260 g) were housed under standard conditions and were fed with commercial rat chow and water ad libitum. During the experiment D-myo-inositol-1,2,6-trisphosphate (IP3) was administered via subcutaneously operated osmotic minipumps with a dose level of 1 mg/kg/hr. A control group received saline solution by osmotic minipumps. The animals were anaesthetised with an intraperitoneal injection of ketamine, 100 mg/kg, (MTC Pharmaceuticals, Cambridge, Ontario, Canada) and xylazine, 10 mg/kg (Bayer lnc., Etobicoke, Ontario, Canada). Using a dissecting microscope, the left carotid artery was exposed on the ventral side of the neck via a midline incision. The bifurcation of the carotid artery was located and two ligatures were placed around the external carotid artery, which was then tied off with the distal ligature. After temporarily occluding the internal carotid artery with a vascular clamp, a small incision was made between the two ligatures placed around the external carotid artery to introduce the endothelial denudation device, an inflated […] Fogarty embolectomy catheter (Baxter Healthcare, Buckinghamshire, UK). […]

Row | Structure (SMILES) | Reduction of neointima formation (vs saline control, 1 mg/kg/hr via subcutaneous osmotic minipumps, 14 days post-operatively) [%] | Reduction of neointima formation (vs control, procedure similar to Example 3) [%]
1 | O=P(O)(O)O[C@@H]1[C@H](OP(=O)(O)O)[C@H](O)[C@@H](O)[C@H](O)[C@H]1OP(=O)(O)O [IP3, D-myo-inositol-1,2,6-trisphosphate] | 57 | –
2 | O=C(Nc1ccccc1)O[C@@H]1[C@@H](OC(=O)Nc2ccccc2)[C@@H](OP(=O)(O)O)[C@@H](OP(=O)(O)O)[C@H](OP(=O)(O)O)[C@H]1OC(=O)Nc1ccccc1 [PP 11-201, D-3,4,5-tri-O-(phenylcarbamoyl) myo-inositol-1,2,6-trisphosphate] | – | 62
